According to US20060151574A1, “Formulations useful against hepatitis C virus infections” (priority 2002, published 2006):

Assays:
RAR = assay: Ligands for nuclear receptors: effector concentration; assay type: biochemical; conditions: read-out: EC50 (effector concentration, concentration showing 50% effect)
HCV replicon cell lines = assay: HCV replicon cell lines: HCV RNA by Northern Blotting, NS5a by Western Blotting; assay type: cell-based, Hepatitis C virus
Source text: The only reliable experimental animal HCV infection studies have been performed with chimpanzees. So far, there is no simple cell culture infection system available or HCV. Although a number of reports have been published describing in vitro propagation attempts of HCV in primary cells and cell lines, questions remain concerning reproducibility, low levels of expression and properly controlled detection methods (reviewed in J. Gen Virol. 81, 1631; Antiviral Chemistry and Chemotherapy 10, 99). Thus, the replicon system described by Bartenschlager and coworkers (Lohmann et al, Replication of subgenomic hepatitis C virus RNAs in a hepatoma cell line. Science 285, 110. 1999) was used for the studies disclosed herein. This replicon system reproduces a crucial part of the HCV replication cycle which is used as a system for simulating HCV infection. Bartenschlager's group produced bicistronic recombinant RNAs, so-called “replicons”, which carry the neomycin-phosphotransferase (NPT) gene as well as a version of the HCV genome where the sequences for the structural HCV proteins were deleted. After transfection of the subgenomic HCV RNA molecules into the human hepatoma cell line HuH-7, cells supporting efficient RNA-dependent RNA replication of the HCV replicons were selected based on co-amplification of the NPT gene and resulting resistance to the antibiotic G-418. Integration of coding information into the cellular genome was an exclusion criteria for functional replicons. Several lines were established from G-418 resistant clones with autonomously replicating HCV RNAs detectable by Northern Blotting.
Possible influences and/or dependencies of HCV's RNA-dependent RNA replication and nonstructural proteins on host cell transcription are accessible to analysis with the Clontech cDNA arrays used in the methods described herein. HuH-pcDNA3 cells are HuH7 cells resistant to G-418 by integration of a NPT gene-carrying plasmid (pcDNA3, Invitrogen) and serve as negative control. Three replicon lines were analyzed for changes in cellular RNA expression patterns compared to the control line: • HuH-9-13: cell line with persistant replicon IRES377/NS3-3′/wt, described in Science 1999, 285, 110-113, • HuH-5-15: cell line with persistant replicon IRES389/NS3-3′/wt, described in Science 1999, 285, 110-113, • HuH-11-7: cell line with persistant replicon IRES377/NS2-3′/wt, described in Science 1999, 285, 110-113.
(§1) Moreover, as model system for HCV replication there were utilized three replicon cell lines provided by Prof. R. Bartenschlager (University of Heidelberg, FRG). Cultures were treated for various periods of time with all bans retinoic acid (RA) for comparative purposes and the other agents selenium, selenium salts, Vitamin D3 and retinoids, like 9-cis retinoic acid, C1-C10 alkyl esters of 9-cis retinoic acid, C1-C10 alkyl amides of 9-cis retinoic add, N-(4-hydroxyphenyl)retinamide (4-HPR) and 6-[3-(1-adamantyl)+hydroxyphenyl]-2-naphthalene carboxylic acid (CD437; AHPN) (obtained from Sigma). Levels of expression of GI-GPx was measured on protein level by Western Blotting using antibodies provided by Prof. Brigelius-Flohe (University of Potsdam, FRG) and on RNA level by Northern blotting using GI-GPx-specific oligonucleotides as probes. Levels of HCV RNA were investigated by Northern Blotting using a DNA oligonucleotide complementary to the neomycin phosphotansferase gene as probe. Concentration of the viral protein NS5a was determined by Western Blotting with an NS5a-specific antibody (Biogenesis, UK).

[1] = test system: nuclear receptors (RAR, RXR); assay: Ability to act as ligands for nuclear receptors; assay type: binding
interferon receptors = assay: Expression of interferon receptors in replicon cells by western Blotting; assay type: cell-based, human
replicon cells = assay: Cytotoxic effects on replicon cells
GI-GPx = GI-GPx expression in replicon cells (Western / Northern blotting); assay type: cell-based, human
Description: as §1

PKR mRNA = PKR mRNA levels by Northern blotting (interferon response); assay type: cell-based, human
Source text: In the course of retinoic acid studies it was investigated whether the RA-effect may also be mediated by activating an interferon response. A typical interferon-inducible gene codes for the double-stranded RNA-dependent protein kinase (PKR).

[2] = six days, in the presence of selenium or a selenium salt like sodium selenite
[3] = replicon cells, 1 μM, three days
[4] = 1 μM, seven days, depending on the cell line
[5] = HCV replicon cell lines, FIG. 1 Panel A

C/C(=C\c1ccc(C(=O)O)cc1)c1ccc2c(c1)C(C)(C)CCC2(C)C [TTNPB]
Effect on Replication (HCV replicon cell lines): +++
Receptor(s) [1]: RAR

COC(C)(C)CCCC(C)C/C=C/C(C)=C/C(=O)O (stereo not drawn) [Methoprene acid, 11-methoxy-3,7,11-trimethyl-2E,4E-dodecadienoic acid]
Effect on Replication (HCV replicon cell lines): −
Receptor(s) [1]: RXR

CC1=C(/C=C/C(C)=C/C=C/C(C)=C/C(=O)Nc2ccc(O)cc2)C(C)(C)CCC1 [4-HPR, N-(4-hydroxyphenyl)retinamide]
Effect on Replication (HCV replicon cell lines): ++
Receptor(s) [1]: RAR

CC1=C(/C=C/C(C)=C/C=C/C(C)=C\C(=O)O)C(C)(C)CCC1 [13-cis RA, 13-cis retinoic acid]
Effect on Replication (HCV replicon cell lines): +++

CC1=C(/C=C/C(C)=C/C=C/C(C)=C/C(=O)O)C(C)(C)CCC1 [ATRA, all trans retinoic acid]
interferon receptors on protein level (interferon receptors): no up-regulation
toxic effects (replicon cells; [2]): absence of toxic effects
up-regulation of GI-GPx on RNA- and protein level (GI-GPx; 1 μM, seven days of incubation): three- to ten-fold
GI-GPx gene expression (GI-GPx; HCV replicon cell lines, FIG. 1 Panel B): up-regulation
effect on GI-GPx expression (GI-GPx; [3]): hardly an effect
upregulation of GI-GPx RNA and protein (GI-GPx; replicon cells, six days): upregulation
Effect on Replication (HCV replicon cell lines): +++
expression of subgenomic HCV RNA downregulated (HCV replicon cell lines; [4]): two- to five-fold
expression of viral protein NS5a downregulated (HCV replicon cell lines; [4]): two- to five-fold
HCV RNA (HCV replicon cell lines; [5]): suppression
NS5a protein expression (HCV replicon cell lines; [5]): suppression
HCV down-regulation by IFN alpha (HCV replicon cell lines; in the presence of RA, FIG. 2 center Panel): slightly enhanced
effect on HCV expression (HCV replicon cell lines; [3]): hardly an effect
reduction of HCV-NS5a protein (HCV replicon cell lines; [2]): two- to five-fold
reduction of HCV-RNA (HCV replicon cell lines; [2]): two- to five-fold
transcription of PKR (PKR mRNA): did not induce
PKR mRNA levels (PKR mRNA; mock-transfected HuH7 cells (pcDNA3) and replicon cell lines, ATRA 1 μM, IFN as control, FIG. 1 Panel C): no up-regulation
Receptor(s) [1]: RAR

O=[Se](O)O [sodium selenite]
Severe cytotoxic effects (replicon cells; substance alone): neither observed

CC1=C(/C=C/C(C)=C\C=C\C(C)=C\C(=O)O)C(C)(C)CCC1 [9-cis RA, 9-cis retinoic acid]
Effect on Replication (HCV replicon cell lines): +++
reducing HCV load (HCV replicon cell lines): capable of reducing HCV load
downregulate HCV RNA, compared with all trans retinoic acid alone (HCV replicon cell lines; first preliminary result): significantly better

CC1(C)CCC(C)(C)c2cc(C(=O)Nc3ccc(C(=O)O)cc3)ccc21 [AM-580, (4-[5,6,7,8-tetrahydro-5,5,8,8-tetramethyl-2-naphtalenyl)carbox-amido]benzoic acid]
Effect on Replication (HCV replicon cell lines): ++
Receptor(s) [1]: RARα/not RXR

C=C1CC[C@H](O)C/C1=C/C=C1\CCC[C@]2(C)[C@@H]([C@H](C)CCCC(C)C)CC[C@@H]12 [Vitamin D3]
reducing HCV load (HCV replicon cell lines): capable of reducing HCV load
